Values belong to the compound of their own block, whether it stands above or below them. Active and inactive are the calls of the source. The calls are words filed in the database; no cut-off is given here. *1 amine or outer side, *2 acyl side, *3 side chain or, on linkers, in order; H or OH if unused. Where a SMILES comes first, the peptide text is derived from it. Side-chain parts run from the residue outwards. [ ]: non-standard residue; d: D form. The star is where a group is joined. ξ: configuration not given here. Biotin = O=C1N[C@H]2[C@H](CS[C@H]2CCCCC(=O)*)N1; Oic(3aξ,7aξ) = O=C(O)[C@@H]1CC2CCCCC2N1; X1 = O=C([C@H](CCCS)N[*:1])[*:2]; hArg = N=C(N)NCCCC[C@H](N)C(=O)O; hCys = N[C@@H](CCS)C(=O)O; X2 = N[C@@H](CCCS)C(=O)*; Aun = NCCCCCCCCCCC(=O)O; Dab = NCC[C@H](N)C(=O)O; Dap = NC[C@H](N)C(=O)O; X3 = CSC[C@H](N)C(=O)*; ξK = NCCCCC(N)C(=O)O; Mpa = O=C(O)CCS
Key:
VEGA-NRP1 = VEGA-NRP1 (Homo sapiens, UniProt O14786); assay: Inhibition of human biotinylated-VEGFA165 binding to recombinant human NRP-1 measured after 2 hrs by chemiluminescent based ELISA; format: protein assay; conditions: read-out: IC50
Chain of VEGA-NRP1 (P15692 whole entry): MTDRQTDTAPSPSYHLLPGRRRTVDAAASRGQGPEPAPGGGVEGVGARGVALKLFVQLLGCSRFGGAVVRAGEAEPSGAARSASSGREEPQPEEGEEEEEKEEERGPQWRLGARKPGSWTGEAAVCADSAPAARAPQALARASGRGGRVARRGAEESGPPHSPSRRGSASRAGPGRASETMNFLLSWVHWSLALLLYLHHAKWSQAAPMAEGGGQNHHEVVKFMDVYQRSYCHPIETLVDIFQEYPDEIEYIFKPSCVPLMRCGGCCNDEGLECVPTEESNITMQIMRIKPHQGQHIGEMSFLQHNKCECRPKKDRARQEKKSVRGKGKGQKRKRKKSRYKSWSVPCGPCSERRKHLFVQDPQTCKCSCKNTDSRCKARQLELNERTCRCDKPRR
Chain of VEGA-NRP1 (O14786 whole entry): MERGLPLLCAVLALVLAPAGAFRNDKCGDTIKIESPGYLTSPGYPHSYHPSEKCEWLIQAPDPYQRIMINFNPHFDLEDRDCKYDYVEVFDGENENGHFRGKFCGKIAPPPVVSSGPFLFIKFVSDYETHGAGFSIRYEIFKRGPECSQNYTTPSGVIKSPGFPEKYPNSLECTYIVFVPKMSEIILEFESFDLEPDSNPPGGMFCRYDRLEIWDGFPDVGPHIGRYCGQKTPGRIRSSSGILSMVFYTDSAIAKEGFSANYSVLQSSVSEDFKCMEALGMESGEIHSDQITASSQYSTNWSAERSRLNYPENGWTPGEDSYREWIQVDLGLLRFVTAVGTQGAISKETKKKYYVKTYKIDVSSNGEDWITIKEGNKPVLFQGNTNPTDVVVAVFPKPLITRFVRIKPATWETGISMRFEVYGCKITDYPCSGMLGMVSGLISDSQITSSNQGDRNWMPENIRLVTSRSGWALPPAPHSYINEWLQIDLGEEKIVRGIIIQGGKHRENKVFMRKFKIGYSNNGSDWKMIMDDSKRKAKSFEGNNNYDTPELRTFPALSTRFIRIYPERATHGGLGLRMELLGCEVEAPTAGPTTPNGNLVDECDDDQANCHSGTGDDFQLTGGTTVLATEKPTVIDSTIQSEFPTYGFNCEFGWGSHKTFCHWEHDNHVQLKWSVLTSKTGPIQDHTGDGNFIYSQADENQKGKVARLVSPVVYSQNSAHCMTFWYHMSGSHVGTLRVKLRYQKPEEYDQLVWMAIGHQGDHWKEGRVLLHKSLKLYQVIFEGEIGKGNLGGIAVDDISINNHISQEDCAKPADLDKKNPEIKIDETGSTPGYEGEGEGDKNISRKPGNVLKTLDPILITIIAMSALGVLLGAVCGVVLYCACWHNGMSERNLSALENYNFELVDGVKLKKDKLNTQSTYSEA

[1] = Half-life in human serum by LC-SWATH-MS analysis; format: ADME, cell-free
Cell membrane [2] = assay: Binding affinity to human MDA-MB-231 cell membrane at 59 uM measured after 15 mins at 4 degC by Alexa Fluor 594-streptavidin staining based fluorescence microscopy; format: subcellular
MDA-MB-231 [3] = assay: Increase in NRP-1 expression in human MDA-MB-231 cell membrane at 59 uM preincubated for 15 mins at 4 degC followed by compound washout and further incubated for 5 mins with subsequent addition of compound at 37 degC by FITC-streptavidin staining based flow cytometry analysis; format: functional; conditions: time 20.0 min
Cell membrane [4] = assay: Binding affinity to human MDA-MB-231 cell membrane at 59 uM preincubated for 15 mins at 4 degC followed by compound washout and further incubated for 5 mins with subsequent addition of compound at 37 degC by Alexa Fluor 594-streptavidin staining based fluorescence microscopy; format: subcellular; conditions: time 20.0 min
Cell membrane [5] = assay: Binding affinity to human MDA-MB-231 cell membrane at 59 uM preincubated for 15 mins at 4 degC followed by compound washout and further incubated for 5 mins with subsequent addition of compound at 37 degC by FITC-streptavidin staining based flow cytometry analysis; format: subcellular; conditions: time 20.0 min
MDA-MB-231 [6] = assay: Increase in NRP-1 expression in human MDA-MB-231 cell membrane at 59 uM preincubated for 15 mins at 4 degC followed by compound washout and further incubated for 60 mins with subsequent addition of compound at 37 degC by FITC-streptavidin staining based flow cytometry analysis; format: functional; conditions: time 75.0 min
MDA-MB-231 [7] = assay: Increase in NRP-1 expression in human MDA-MB-231 cell membrane at 5.9 uM preincubated for 15 mins at 4 degC followed by compound washout and further incubated for 60 mins with subsequent addition of compound at 37 degC by FITC-streptavidin staining based flow cytometry analysis; format: functional; conditions: time 75.0 min
[8] = molecular target: Neuropilin-1 (Homo sapiens) (UniProt O14786); assay: Binding affinity to NRP-1 in human MDA-MB-231 cells at 12.5 to 100 ug/ml measured after 15 mins by FITC-streptavidin staining based flow cytometry analysis; format: cell-based; conditions: dose 12.5-100 µg/ml
Chain of Neuropilin-1 (Homo sapiens) (O14786 whole entry): as above

[9] = molecular target: Neuropilin-1 (Homo sapiens) (UniProt O14786); assay: Binding affinity to NRP-1 in human MDA-MB-435 cells at 12.5 to 100 ug/ml measured after 15 mins by FITC-streptavidin staining based flow cytometry analysis; format: cell-based; conditions: dose 12.5-100 µg/ml
VEGA-NRP1 (Homo sapiens) = VEGA-NRP1 (Homo sapiens) (UniProt P15692+O14786); assay: Inhibition of biotinylated-VEGFA165 (unknown origin) binding to C-terminal 6-His tagged human NRP-1 (Phe22 to Lys644 residues) expressed in mouse NS0 cells at 100 uM measured after 2 hrs by chemiluminescence assay relative to control; format: cell-based
Chain of VEGA-NRP1 (Homo sapiens) (O14786 22-923 partner limits assumed): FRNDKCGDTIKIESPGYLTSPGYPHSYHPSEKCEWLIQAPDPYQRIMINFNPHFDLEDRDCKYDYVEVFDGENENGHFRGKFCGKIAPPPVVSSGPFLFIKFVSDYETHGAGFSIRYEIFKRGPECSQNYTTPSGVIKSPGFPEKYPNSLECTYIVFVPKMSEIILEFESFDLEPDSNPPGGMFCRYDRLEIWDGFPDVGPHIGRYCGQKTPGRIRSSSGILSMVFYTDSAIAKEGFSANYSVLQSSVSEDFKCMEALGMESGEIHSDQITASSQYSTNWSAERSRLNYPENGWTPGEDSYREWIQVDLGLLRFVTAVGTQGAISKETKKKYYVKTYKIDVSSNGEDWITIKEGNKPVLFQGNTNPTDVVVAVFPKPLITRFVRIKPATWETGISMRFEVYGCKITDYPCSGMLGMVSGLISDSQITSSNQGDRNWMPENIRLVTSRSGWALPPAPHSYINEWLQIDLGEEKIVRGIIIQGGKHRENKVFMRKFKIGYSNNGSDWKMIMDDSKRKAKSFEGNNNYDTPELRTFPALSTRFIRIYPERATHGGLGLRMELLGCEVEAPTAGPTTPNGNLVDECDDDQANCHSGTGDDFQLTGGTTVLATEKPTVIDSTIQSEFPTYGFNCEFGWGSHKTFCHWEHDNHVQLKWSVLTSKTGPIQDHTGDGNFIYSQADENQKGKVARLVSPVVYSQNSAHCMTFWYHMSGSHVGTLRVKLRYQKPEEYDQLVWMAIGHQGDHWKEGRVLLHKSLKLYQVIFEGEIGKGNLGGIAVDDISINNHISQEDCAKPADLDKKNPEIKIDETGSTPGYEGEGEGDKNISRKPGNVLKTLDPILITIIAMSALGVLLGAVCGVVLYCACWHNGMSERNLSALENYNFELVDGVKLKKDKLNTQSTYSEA
Chain of VEGA-NRP1 (Homo sapiens) (P15692 whole entry): as the sequence (P15692 whole entry) above

Compound: N=C(N)NCCCC[C@H](NC(=O)CCS)C(=O)NCCCC[C@H](N)C(=O)N[C@@H](CCN)C(=O)N1C2CCCCC2C[C@H]1C(=O)N[C@@H](CCCNC(=N)N)C(=O)O (stereo partly drawn) (H-K([hArg-Mpa])[Dab][Oic(3aξ,7aξ)]R-OH)
IC50 (VEGA-NRP1): 2170 nM

Compound: CC[C@H](N)C(=O)N[C@@H](CCCCNC(=N)N)C(=O)NCCCC[C@H](N)C(=O)N[C@@H](CCN)C(=O)N1C2CCCCC2C[C@H]1C(=O)N[C@@H](CCCNC(=N)N)C(=O)O (stereo partly drawn) (HELM PEPTIDE1{K.[Dab].[O=C([C@@H]1CC2CCCCC2N1[*:1])[*:2]].R}|PEPTIDE2{[Abu].[N=C(N)NCCCC[C@H](N[*:1])C(=O)[*:2]]}$PEPTIDE1,PEPTIDE2,1:R3-2:R2$$$V2.0)
IC50 (VEGA-NRP1): 2480 nM

Compound: CC[C@H](N)C(=O)N[C@@H](CCCCNC(=O)[C@@H](N)CCCCNC(=N)N)C(=O)N[C@@H](CCN)C(=O)N1C2CCCCC2C[C@H]1C(=O)N[C@@H](CCCNC(=N)N)C(=O)O (stereo partly drawn) (HELM PEPTIDE1{[Abu].K.[Dab].[O=C([C@@H]1CC2CCCCC2N1[*:1])[*:2]].R}|PEPTIDE2{[N=C(N)NCCCC[C@H](N)C(=O)[*:2]]}$PEPTIDE1,PEPTIDE2,2:R3-1:R2$$$V2.0)
half-life [1]: 120 min
IC50 (VEGA-NRP1): 2410 nM

Compound: N=C(N)NCCCC[C@H](N)C(=O)NCCCC[C@H](NC(=O)[C@@H](N)CO)C(=O)N[C@@H](CCN)C(=O)N1C2CCCCC2C[C@H]1C(=O)N[C@@H](CCCNC(=N)N)C(=O)O (stereo partly drawn) (HELM PEPTIDE1{S.K.[Dab].[O=C([C@@H]1CC2CCCCC2N1[*:1])[*:2]].R}|PEPTIDE2{[N=C(N)NCCCC[C@H](N)C(=O)[*:2]]}$PEPTIDE1,PEPTIDE2,2:R3-1:R2$$$V2.0)
IC50 (VEGA-NRP1): 1540 nM

Compound: N=C(N)NCCCC[C@H](NC(=O)CCCCCCCCCCNC(=O)CCCC[C@@H]1SC[C@@H]2NC(=O)N[C@@H]21)C(=O)NCCCC[C@H](NC(=O)[C@@H](N)CS)C(=O)N[C@@H](CCN)C(=O)N1C2CCCCC2C[C@H]1C(=O)N[C@@H](CCCNC(=N)N)C(=O)O (stereo partly drawn) (H-CK([hArg-Aun-Biotin])[Dab][Oic(3aξ,7aξ)]R-OH)
Activity (Cell membrane [2]): Active
Activity (MDA-MB-231 [3]): Active
Activity (Cell membrane [4]): Active
Activity (Cell membrane [5]): Active
Activity (MDA-MB-231 [6]): Active
Activity (MDA-MB-231 [7]): inactive
Activity [8]: Active
Activity [9]: inactive

Compound: N=C(N)NCCCC[C@H](NC(=O)[C@@H](N)CCCS)C(=O)NCCCC[C@H](N)C(=O)N[C@@H](CCN)C(=O)N1C2CCCCC2C[C@H]1C(=O)N[C@@H](CCCNC(=N)N)C(=O)O (stereo partly drawn) (H-K([hArg-X2])[Dab][Oic(3aξ,7aξ)]R-OH)
IC50 (VEGA-NRP1): 1330 nM

Compound: C[C@@H](O)[C@H](NC(=O)[C@H](CCCNC(=N)N)NC(=O)[C@@H](N)CCC(=O)O)C(=O)N[C@@H](CS)C(=O)N[C@@H](CCCNC(=N)N)C(=O)N[C@@H](CS)C(=O)N[C@@H](CC(=O)O)C(=O)N[C@@H](CCCCN)C(=O)N1CCC[C@H]1C(=O)N[C@@H](CCCNC(=N)N)C(=O)N[C@@H](CCCNC(=N)N)C(=O)O (H-ERTCRCDKPRR-OH)
inhibition (VEGA-NRP1 (Homo sapiens)): 96%

Compound: CSC[C@H](N)C(=O)N[C@@H](CCCCNC(=N)N)C(=O)NCCCC[C@H](N)C(=O)N[C@@H](CCN)C(=O)N1C2CCCCC2C[C@H]1C(=O)N[C@@H](CCCNC(=N)N)C(=O)O (stereo partly drawn) (H-K([hArg-X3])[Dab][Oic(3aξ,7aξ)]R-OH)
IC50 (VEGA-NRP1): 2820 nM

Compound: CSC[C@H](N)C(=O)N[C@@H](CCCCNC(=O)[C@@H](N)CCCCNC(=N)N)C(=O)N[C@@H](CCN)C(=O)N1C2CCCCC2C[C@H]1C(=O)N[C@@H](CCCNC(=N)N)C(=O)O (stereo partly drawn) (H-C(Me)K(hArg)[Dab][Oic(3aξ,7aξ)]R-OH)
IC50 (VEGA-NRP1): 2480 nM

Compound: N=C(N)NCCCC[C@H](NC(=O)[C@@H](N)CS)C(=O)NCCCCC(NC(=O)CCCCCCCCCCNC(=O)CCCC[C@@H]1SC[C@@H]2NC(=O)N[C@@H]21)C(=O)N[C@@H](CCN)C(=O)N1C2CCCCC2C[C@H]1C(=O)N[C@@H](CCCNC(=N)N)C(=O)O (stereo partly drawn) ({Biotin-Aun}-[ξK]([hArg-Cys])[Dab][Oic(3aξ,7aξ)]R-OH)
Activity (Cell membrane [2]): Active
Activity (MDA-MB-231 [3]): Active
Activity (Cell membrane [4]): Active
Activity (Cell membrane [5]): Active
Activity (MDA-MB-231 [6]): Active
Activity (MDA-MB-231 [7]): inactive
Activity [8]: Active
Activity [9]: inactive

Compound: H-CDKPRR-OH
inhibition (VEGA-NRP1 (Homo sapiens)): 96%

The remaining compounds from weak to strong by IC50 (VEGA-NRP1), led by results:

IC50 (VEGA-NRP1): 1130 nM
Compound: N=C(N)NCCCC[C@H](N)C(=O)NCCCC[C@H](NC(=O)CCS)C(=O)N[C@@H](CCN)C(=O)N1C2CCCCC2C[C@H]1C(=O)N[C@@H](CCCNC(=N)N)C(=O)O (stereo partly drawn) ([Mpa]K(hArg)[Dab][Oic(3aξ,7aξ)]R-OH)

IC50 (VEGA-NRP1): 890 nM
Compound: N=C(N)NCCCC[C@H](N)C(=O)NCCCC[C@H](NC(=O)[C@@H](N)CCCS)C(=O)N[C@@H](CCN)C(=O)N1C2CCCCC2C[C@H]1C(=O)N[C@@H](CCCNC(=N)N)C(=O)O (stereo partly drawn) (H-[X1]K(hArg)[Dab][Oic(3aξ,7aξ)]R-OH)

IC50 (VEGA-NRP1): 810 nM
Compound: N=C(N)NCCCC[C@H](NC(=O)[C@@H](N)CO)C(=O)NCCCC[C@H](N)C(=O)N[C@@H](CCN)C(=O)N1C2CCCCC2C[C@H]1C(=O)N[C@@H](CCCNC(=N)N)C(=O)O (stereo partly drawn) (HELM PEPTIDE1{K.[Dab].[O=C([C@@H]1CC2CCCCC2N1[*:1])[*:2]].R}|PEPTIDE2{S.[N=C(N)NCCCC[C@H](N[*:1])C(=O)[*:2]]}$PEPTIDE1,PEPTIDE2,1:R3-2:R2$$$V2.0)

IC50 (VEGA-NRP1): 700 nM
Compound: N=C(N)NCCCC[C@H](N)C(=O)NCCCC[C@H](NC(=O)[C@@H](N)CCS)C(=O)N[C@@H](CCN)C(=O)N1C2CCCCC2C[C@H]1C(=O)N[C@@H](CCCNC(=N)N)C(=O)O (stereo partly drawn) (H-[hCys]K(hArg)[Dab][Oic(3aξ,7aξ)]R-OH)

IC50 (VEGA-NRP1): 630 nM
Compound: N=C(N)NCCCC[C@H](NC(=O)[C@@H](N)CCS)C(=O)NCCCC[C@H](N)C(=O)N[C@@H](CCN)C(=O)N1C2CCCCC2C[C@H]1C(=O)N[C@@H](CCCNC(=N)N)C(=O)O (stereo partly drawn) (H-K([hArg-hCys])[Dab][Oic(3aξ,7aξ)]R-OH)

IC50 (VEGA-NRP1): 440 nM
Compound: N=C(N)NCCCC[C@H](N)C(=O)NCCCC[C@H](NC(=O)[C@@H](N)CN)C(=O)N[C@@H](CCN)C(=O)N1C2CCCCC2C[C@H]1C(=O)N[C@@H](CCCNC(=N)N)C(=O)O (stereo partly drawn) (H-[Dap]K(hArg)[Dab][Oic(3aξ,7aξ)]R-OH)

IC50 (VEGA-NRP1): 330 nM
Compound: N=C(N)NCCCC[C@H](NC(=O)[C@@H](N)CN)C(=O)NCCCC[C@H](N)C(=O)N[C@@H](CCN)C(=O)N1C2CCCCC2C[C@H]1C(=O)N[C@@H](CCCNC(=N)N)C(=O)O (stereo partly drawn) (H-K([hArg-Dap])[Dab][Oic(3aξ,7aξ)]R-OH)

Reference: ChEMBL document CHEMBL5365540, “Structure-activity relationship studies and biological properties evaluation of peptidic NRP-1 ligands: Investigation of N-terminal cysteine importance” (Bioorg Med Chem, 2023)
